Laboratory results: ChEMBL document CHEMBL5046255, “Design and synthesis of dual inhibitors targeting snail and histone deacetylase for the treatment of solid tumour cancer” (Eur J Med Chem, 2022)
Each block holds one compound with its values, some of them ahead of it.

Columns and labels:
HCT-116 [1] = assay: Antiproliferative activity against human HCT-116 cells assessed as cell viability at 1 uM incubated for 72 hrs by luminescence assay; format: functional, cell-based; details: for viability at 1 µM: HCT-116, dose 1 µM, time 72 hrs, read-out: Activity; for IC50: HCT-116, 72 h
Histone deacetylase 1 = Histone deacetylase 1 (Homo sapiens, UniProt Q13547); assay: Inhibition of HDAC1 (unknown origin) using p53 (379 to 382 residues) (RHKK(Ac-AMC) as fluorogenic substrate incubated for 1 hrs by fluorescence based assay
Histone deacetylase 1, sequence (Q13547 whole entry, the tested form may be a part): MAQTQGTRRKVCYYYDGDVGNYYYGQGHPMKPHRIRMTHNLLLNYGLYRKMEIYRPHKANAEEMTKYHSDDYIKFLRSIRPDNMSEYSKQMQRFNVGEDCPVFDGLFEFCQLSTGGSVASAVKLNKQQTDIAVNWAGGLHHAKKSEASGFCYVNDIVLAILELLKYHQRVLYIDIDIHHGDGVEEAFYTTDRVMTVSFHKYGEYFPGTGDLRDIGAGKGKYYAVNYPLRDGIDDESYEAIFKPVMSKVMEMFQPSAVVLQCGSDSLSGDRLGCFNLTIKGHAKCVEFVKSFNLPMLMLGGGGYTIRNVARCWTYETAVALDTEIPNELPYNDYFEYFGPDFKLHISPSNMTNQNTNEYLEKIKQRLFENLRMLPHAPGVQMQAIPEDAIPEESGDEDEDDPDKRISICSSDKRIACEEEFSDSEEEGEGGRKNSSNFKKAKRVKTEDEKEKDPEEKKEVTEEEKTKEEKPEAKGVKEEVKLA

[2] = Binding affinity to SNAI1 (unknown origin) assessed as dissociation constant; parameters: species or system Homo sapiens
[3] = Metabolic stability in human liver microsomes assessed as half life incubated for 10 mins by LC-MS/MS analysis; format: ADME, Microsome
[4] = Metabolic stability in monkey plasma assessed as parent compound remaining at 100 uM measured after 2 hrs by LC-MS/MS analysis; format: ADME, cell-free, Macaca mulatta; details: rhesus monkey, read-out: Stability
[5] = Metabolic stability in rat plasma assessed as parent compound remaining at 100 uM measured after 2 hrs by LC-MS/MS analysis; format: ADME, cell-free; details: read-out: Stability
[6] = Metabolic stability in dog plasma assessed as parent compound remaining at 100 uM measured after 2 hrs by LC-MS/MS analysis; format: ADME, cell-free, Canis lupus familiaris; details: read-out: Stability
[7] = Metabolic stability in human liver microsomes assessed as intrinsic clearance incubated for 10 mins by LC-MS/MS analysis; format: ADME, Microsome; details: read-out: CLH
[8] = Metabolic stability in dog liver microsomes assessed as intrinsic clearance incubated for 10 mins by LC-MS/MS analysis; format: ADME, Canis lupus familiaris, Microsome; details: read-out: CLH
[9] = Metabolic stability in rat liver microsomes assessed as half life incubated for 10 mins by LC-MS/MS analysis; format: ADME, Microsome
[10] = Metabolic stability in dog liver microsomes assessed as half life incubated for 10 mins by LC-MS/MS analysis; format: ADME, Canis lupus familiaris, Microsome
[11] = Metabolic stability in human plasma assessed as parent compound remaining at 100 uM measured after 2 hrs by LC-MS/MS analysis; format: ADME, cell-free; details: read-out: Stability
[12] = Metabolic stability in monkey liver microsomes assessed as half life incubated for 10 mins by LC-MS/MS analysis; format: ADME, Macaca mulatta, Microsome; details: rhesus monkey
[13] = Metabolic stability in rat plasma assessed as half life at 100 uM measured upto 120 mins by LC-MS/MS analysis; format: ADME, cell-free
[14] = Metabolic stability in monkey liver microsomes assessed as intrinsic clearance incubated for 10 mins by LC-MS/MS analysis; format: ADME, Macaca mulatta, Microsome; details: rhesus monkey, read-out: CLH
[15] = Metabolic stability in rat liver microsomes assessed as intrinsic clearance incubated for 10 mins by LC-MS/MS analysis; format: ADME, Microsome; details: read-out: CLH
[16] = Metabolic stability in dog plasma assessed as half life at 100 uM measured upto 120 mins by LC-MS/MS analysis; format: ADME, cell-free, Canis lupus familiaris
HCT-116 [17] = assay: Antiproliferative activity against human HCT-116 cells assessed as reduction in cell viability incubated for 72 hrs by luminescence assay; format: functional, cell-based; details: HCT-116, 72 h

Structure (SMILES): Cc1cccnc1Nc1nc(SCc2ccc(C(=O)Nc3ccc(F)cc3N)cc2)nn2cccc12
- IC50 (HCT-116 [1]): 0.857 µM
- Kd [2]: 0.875 µM
- IC50 (Histone deacetylase 1): 1.32 µM

Structure (SMILES): Nc1cc(F)ccc1NC(=O)c1ccc(CSc2nc(N3CCOCC3)c3cccn3n2)cc1
- IC50 (HCT-116 [1]): 0.948 µM
- Kd [2]: 0.754 µM
- IC50 (Histone deacetylase 1): 2.31 µM

Structure (SMILES): Nc1cc(F)ccc1NC(=O)c1ccc(CSc2nc(NC3CCNCC3)c3cccn3n2)cc1
- viability at 1 µM (HCT-116 [1]): 95.8%
- IC50 (Histone deacetylase 1): 2.37 µM

Structure (SMILES): Nc1cc(F)ccc1NC(=O)c1ccc(CSc2nc(Nc3cc[nH]n3)c3cccn3n2)cc1
- IC50 (HCT-116 [1]): 0.731 µM
- Kd [2]: 0.426 µM
- IC50 (Histone deacetylase 1): 0.595 µM

Structure (SMILES): CC(C)(C)c1cc(Nc2nc(SCc3ccc(C(=O)Nc4ccccc4N)cc3)nn3cccc23)n[nH]1
- viability at 1 µM (HCT-116 [1]): 96.1%
- IC50 (Histone deacetylase 1): 0.238 µM

Structure (SMILES): COc1ccc(CNc2nc(SCc3ccc(C(=O)Nc4ccccc4N)cc3)nn3cccc23)cc1
- IC50 (HCT-116 [1]): 0.292 µM
- Kd [2]: 0.356 µM
- IC50 (Histone deacetylase 1): 0.392 µM

Structure (SMILES): COc1ccc(CNc2nc(SCc3ccc(C(=O)Nc4ccccc4N)cc3)nn3cccc23)cc1OC
- viability at 1 µM (HCT-116 [1]): 73.9%
- IC50 (Histone deacetylase 1): 0.406 µM

Structure (SMILES): Nc1ccccc1NC(=O)c1ccc(CSc2nc(N3CCOCC3)c3cccn3n2)cc1
- IC50 (HCT-116 [1]): 1.09 µM
- Kd [2]: 0.905 µM
- IC50 (Histone deacetylase 1): 0.204 µM

Structure (SMILES): Nc1cc(F)ccc1NC(=O)c1ccc(CSc2nc(NCc3ccc(F)cc3)c3cccn3n2)cc1
- viability at 1 µM (HCT-116 [1]): 89.3%
- IC50 (Histone deacetylase 1): > 10 µM

Structure (SMILES): Nc1cc(F)ccc1NC(=O)c1ccc(CSc2nc(NCc3ccc(C(F)(F)F)cc3)c3cccn3n2)cc1
- viability at 1 µM (HCT-116 [1]): 107%
- IC50 (Histone deacetylase 1): > 10 µM

Structure (SMILES): CC(C)(C)OC(=O)N1CCC(Nc2nc(SCc3ccc(C(=O)Nc4ccccc4N)cc3)nn3cccc23)CC1
- viability at 1 µM (HCT-116 [1]): 103%
- IC50 (Histone deacetylase 1): 0.871 µM

Structure (SMILES): CC(C)(C)c1cc(Nc2nc(SCc3ccc(C(=O)Nc4ccc(F)cc4N)cc3)nn3cccc23)n[nH]1
- viability at 1 µM (HCT-116 [1]): 108%
- IC50 (Histone deacetylase 1): 1.54 µM

Structure (SMILES): Cc1cc(Nc2nc(SCc3ccc(C(=O)Nc4ccccc4N)cc3)nn3cccc23)n[nH]1
- IC50 (HCT-116 [1]): 0.959 µM
- Kd [2]: 0.562 µM
- IC50 (Histone deacetylase 1): 0.152 µM

Structure (SMILES): Nc1cc(F)ccc1NC(=O)c1ccc(CNC(=O)/C=C/c2cccnc2)cc1 [TUCIDINOSTAT]
- half-life [3]: 6.27 h
- IC50 (HCT-116 [1]): 2.08 µM
- remaining at 2 h, 100 µM [4]: 102%
- remaining at 2 h, 100 µM [5]: 82.1%
- remaining at 2 h, 100 µM [6]: 103%
- microsomal CLint [7]: 4.18 µL/min/mg
- microsomal CLint [8]: 2.76 µL/min/mg
- Kd [2]: > 10 µM
- half-life [9]: 3.17 h
- half-life [10]: 8.37 h
- remaining at 2 h, 100 µM [11]: 109%
- half-life [12]: 2.05 h
- half-life at 100 µM [13]: 8.83 h
- microsomal CLint [14]: 11.2 µL/min/mg
- microsomal CLint [15]: 7.35 µL/min/mg
- half-life at 100 µM [16]: 16.3 h

Structure (SMILES): COc1ccc(CNc2nc(SCc3ccc(C(=O)Nc4ccc(F)cc4N)cc3)nn3cccc23)cc1OC
- viability at 1 µM (HCT-116 [1]): 73.9%
- IC50 (Histone deacetylase 1): 8.16 µM

Structure (SMILES): CC(C)(C)OC(=O)N1CCC(Nc2nc(SCc3ccc(C(=O)Nc4ccc(F)cc4N)cc3)nn3cccc23)CC1
- viability at 1 µM (HCT-116 [1]): 105%
- IC50 (Histone deacetylase 1): 4.5 µM

The next lines start with results.

- IC50 (Histone deacetylase 1): 1.73 µM
Structure (SMILES): Nc1ccccc1NC(=O)c1ccc(CSc2nc(NCc3ccc(C(F)(F)F)cc3)c3cccn3n2)cc1
- viability at 1 µM (HCT-116 [1]): 102%

- IC50 (HCT-116 [1]): 1.37 µM
- Kd [2]: 0.945 µM
- IC50 (Histone deacetylase 1): 0.204 µM
Structure (SMILES): Cc1cccnc1Nc1nc(SCc2ccc(C(=O)Nc3ccccc3N)cc2)nn2cccc12

- IC50 (Histone deacetylase 1): 0.493 µM
Structure (SMILES): Nc1ccccc1NC(=O)c1ccc(CSc2nc(NC3CCNCC3)c3cccn3n2)cc1
- viability at 1 µM (HCT-116 [1]): 78.5%

- IC50 (Histone deacetylase 1): > 10 µM
Structure (SMILES): COc1ccc(CNc2nc(SCc3ccc(C(=O)Nc4ccc(F)cc4N)cc3)nn3cccc23)c(OC)c1
- viability at 1 µM (HCT-116 [1]): 92.5%

- IC50 (Histone deacetylase 1): 0.336 µM
Structure (SMILES): COc1ccc(CNc2nc(SCc3ccc(C(=O)Nc4ccccc4N)cc3)nn3cccc23)c(OC)c1
- viability at 1 µM (HCT-116 [1]): 92.5%

- IC50 (HCT-116 [1]): 0.997 µM
- Kd [2]: 0.514 µM
- IC50 (Histone deacetylase 1): 5.04 µM
Structure (SMILES): COc1ccc(CNc2nc(SCc3ccc(C(=O)Nc4ccc(F)cc4N)cc3)nn3cccc23)cc1

- IC50 (Histone deacetylase 1): 0.481 µM
Structure (SMILES): Nc1ccccc1NC(=O)c1ccc(CSc2nc(NCc3ccc(F)cc3)c3cccn3n2)cc1
- viability at 1 µM (HCT-116 [1]): 83.1%

- Kd [2]: 0.984 µM
- IC50 (HCT-116 [17]): 1.55 µM
- IC50 (Histone deacetylase 1): 0.148 µM
Structure (SMILES): Nc1ccccc1NC(=O)c1ccc(CSc2nc(Nc3cc[nH]n3)c3cccn3n2)cc1
- viability at 1 µM (HCT-116 [1]): 60.3%
